Measurements reported in patent publication US11076594B2, “Pyrazolone compound or salt thereof, preparation method therefor, herbicide composition and use thereof” (QINGDAO KINGAGROOT CHEMICAL COMPOUNDS CO., LTD., priority 2015, dated 2021).

Experiments:
Type in all cases: in vivo
wheat [1] = assay: wheat field test, crop selectivity, greenhouse spray at 4 leaf stage; conditions: 250 g/ha of the active substance; 4 weeks after treatment
Summary of the method: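 Compounds in acetone were mixed with methyl oleate emulsion, diluted with water and applied with a sprayer to greenhouse plants at the 4 leaf stage. Growth control, expressed as fresh weight control rate, was assessed after 4 weeks of further culture.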

chickweed = assay: wheat field resistant broadleaf weed control, greenhouse spray at 4 leaf stage; design: key: Level 10: completely dead; Level 9: above 95% growth control rate; Level 8: above 90% growth control rate; Level 7: above 80% growth control rate; Level 6: above 70% growth control rate; Level 5: above 60% growth control rate; Level 4: above 50% growth control rate; Level 3: above 20% growth control rate; Level 2: 5%-20% growth control rate; Level 1: below 5% growth control rate; conditions: 250 g/ha of the active substance; 4 weeks after treatment; ALS inhibitor resistant
Method: (§1) The activity level standard of harmful plant destruction (i.e. growth control rate) is as follows:
(§2) The above described growth control rate is fresh weight control rate.
(§3) The seeds of alopecurus japonicas, flixweed, shepherd's purse, corn gromwell, chickweed, beckmannia syzigachne, and annual ryegrass and wheat seeds were put into a plastic pot loaded with soil, and then covered with 0.5-2 cm soil, the seeds were allowed to grow in good greenhouse environment. The test plants were treated at 4 leaf stage 2-3 weeks after sowing. The test compounds of the present invention were dissolved in acetone respectively, then added with methyl oleate emulsion and diluted by certain amount of water to certain concentration. The solution was sprayed to the plant with a sprayer. Then the plants were cultured for 4 weeks in greenhouse.

flixweed = assay: as above; design: key: Level 10: completely dead; Level 9: above 95% growth control rate; Level 8: above 90% growth control rate; Level 7: above 80% growth control rate; Level 6: above 70% growth control rate; Level 5: above 60% growth control rate; Level 4: above 50% growth control rate; Level 3: above 20% growth control rate; Level 2: 5%-20% growth control rate; Level 1: below 5% growth control rate; conditions: 250 g/ha of the active substance; 4 weeks after treatment; ALS inhibitor resistant
Method: as §1, §2, §3

shepherd's purse = assay: as above; design: key: Level 10: completely dead; Level 9: above 95% growth control rate; Level 8: above 90% growth control rate; Level 7: above 80% growth control rate; Level 6: above 70% growth control rate; Level 5: above 60% growth control rate; Level 4: above 50% growth control rate; Level 3: above 20% growth control rate; Level 2: 5%-20% growth control rate; Level 1: below 5% growth control rate; conditions: 250 g/ha of the active substance; 4 weeks after treatment; ALS inhibitor resistant
Method: as §1, §2, §3

corn gromwell = assay: as above; design: key: Level 10: completely dead; Level 9: above 95% growth control rate; Level 8: above 90% growth control rate; Level 7: above 80% growth control rate; Level 6: above 70% growth control rate; Level 5: above 60% growth control rate; Level 4: above 50% growth control rate; Level 3: above 20% growth control rate; Level 2: 5%-20% growth control rate; Level 1: below 5% growth control rate; conditions: 250 g/ha of the active substance; 4 weeks after treatment; ALS inhibitor resistant
Method: as §1, §2, §3

rice = assay: post-emergence stage experiment, crop (Table 1); design: key: Level 10: completely dead; Level 9: above 95% growth control rate; Level 8: above 90% growth control rate; Level 7: above 80% growth control rate; Level 6: above 70% growth control rate; Level 5: above 60% growth control rate; Level 4: above 50% growth control rate; Level 3: above 20% growth control rate; Level 2: 5%-20% growth control rate; Level 1: below 5% growth control rate; conditions: post-emergence spray at 4-5 leaf stage, 250 g/ha active ingredient with 450 kg/ha water, rated after 3 weeks in greenhouse
Summary of the method: (§4)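 Weeds and crops grown in soil-filled pots in a greenhouse were sprayed at the 4-5 leaf stage (2-3 weeks after sowing). Compounds were applied in acetone with tween 80, diluted in water. After 3 weeks' culture, growth control was scored as fresh weight control rate.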

corn = assay: post-emergence stage experiment, crop (Table 1); conditions: post-emergence spray at 4-5 leaf stage, 250 g/ha active ingredient with 450 kg/ha water, rated after 3 weeks in greenhouse
Summary of the method: as §4

wheat [2] = assay: post-emergence stage experiment, crop (Table 1); conditions: post-emergence spray at 4-5 leaf stage, 250 g/ha active ingredient with 450 kg/ha water, rated after 3 weeks in greenhouse
Summary of the method: as §4

crab grass = assay: weed control effect in post-emergence stage (Table 1); design: key: Level 10: completely dead; Level 9: above 95% growth control rate; Level 8: above 90% growth control rate; Level 7: above 80% growth control rate; Level 6: above 70% growth control rate; Level 5: above 60% growth control rate; Level 4: above 50% growth control rate; Level 3: above 20% growth control rate; Level 2: 5%-20% growth control rate; Level 1: below 5% growth control rate; conditions: post-emergence spray at 4-5 leaf stage, 250 g/ha active ingredient with 450 kg/ha water, rated after 3 weeks in greenhouse
Summary of the method: as §4

echinochloa = assay: as above; design: key: Level 10: completely dead; Level 9: above 95% growth control rate; Level 8: above 90% growth control rate; Level 7: above 80% growth control rate; Level 6: above 70% growth control rate; Level 5: above 60% growth control rate; Level 4: above 50% growth control rate; Level 3: above 20% growth control rate; Level 2: 5%-20% growth control rate; Level 1: below 5% growth control rate; conditions: post-emergence spray at 4-5 leaf stage, 250 g/ha active ingredient with 450 kg/ha water, rated after 3 weeks in greenhouse
Summary of the method: as §4

rorippa indica = assay: as above; design: key: Level 10: completely dead; Level 9: above 95% growth control rate; Level 8: above 90% growth control rate; Level 7: above 80% growth control rate; Level 6: above 70% growth control rate; Level 5: above 60% growth control rate; Level 4: above 50% growth control rate; Level 3: above 20% growth control rate; Level 2: 5%-20% growth control rate; Level 1: below 5% growth control rate; conditions: post-emergence spray at 4-5 leaf stage, 250 g/ha active ingredient with 450 kg/ha water, rated after 3 weeks in greenhouse
Summary of the method: as §4

Indian mallow = assay: as above; design: key: Level 10: completely dead; Level 9: above 95% growth control rate; Level 8: above 90% growth control rate; Level 7: above 80% growth control rate; Level 6: above 70% growth control rate; Level 5: above 60% growth control rate; Level 4: above 50% growth control rate; Level 3: above 20% growth control rate; Level 2: 5%-20% growth control rate; Level 1: below 5% growth control rate; conditions: post-emergence spray at 4-5 leaf stage, 250 g/ha active ingredient with 450 kg/ha water, rated after 3 weeks in greenhouse
Summary of the method: as §4

bidens bipinnata = assay: as above; design: key: Level 10: completely dead; Level 9: above 95% growth control rate; Level 8: above 90% growth control rate; Level 7: above 80% growth control rate; Level 6: above 70% growth control rate; Level 5: above 60% growth control rate; Level 4: above 50% growth control rate; Level 3: above 20% growth control rate; Level 2: 5%-20% growth control rate; Level 1: below 5% growth control rate; conditions: post-emergence spray at 4-5 leaf stage, 250 g/ha active ingredient with 450 kg/ha water, rated after 3 weeks in greenhouse
Summary of the method: as §4

foxtail = assay: as above; design: key: Level 10: completely dead; Level 9: above 95% growth control rate; Level 8: above 90% growth control rate; Level 7: above 80% growth control rate; Level 6: above 70% growth control rate; Level 5: above 60% growth control rate; Level 4: above 50% growth control rate; Level 3: above 20% growth control rate; Level 2: 5%-20% growth control rate; Level 1: below 5% growth control rate; conditions: post-emergence spray at 4-5 leaf stage, 250 g/ha active ingredient with 450 kg/ha water, rated after 3 weeks in greenhouse
Summary of the method: as §4

Row | SMILES | Wheat (activity level, crop damage) (wheat [1]) | chickweed weed controlling effect (activity level) (chickweed) | flixweed weed controlling effect (activity level) (flixweed) | shepherd's purse weed controlling effect (activity level) (shepherd's purse) | corn gromwell weed controlling effect (activity level) (corn gromwell) | effect on crop, Rice (level) (rice) | effect on crop, Corn (level) (corn) | effect on crop, Wheat (level) (wheat [2]) | weed control effect, Crab grass (level) (crab grass) | weed control effect, Echinochloa (level) (echinochloa) | weed control effect, Rorippa indica (level) (rorippa indica) | weed control effect, Indian mallow (level) (Indian mallow) | weed control effect, Bidens bipinnata (level) (bidens bipinnata) | weed control effect, Green foxtail (level) (foxtail)
1 | CCOc1c(C(=O)Oc2c(C(=O)c3ccc(C(F)(F)F)c(N4CCCCCC4=O)c3Cl)cnn2C)cnn1C [Compound 051] | 0 | 10 | 10 | 10 | 10 | 1 (Level 1: below 5% growth control rate) | 2 (Level 2: 5%-20% growth control rate) | 0 | 5 (Level 5: above 60% growth control rate) | 6 (Level 6: above 70% growth control rate) | 10 | 10 | 2 (Level 2: 5%-20% growth control rate) | 0
2 | CCc1nn(C)c(OC(=O)c2cn(C)nc2C)c1C(=O)c1ccc(C(F)(F)F)c(N2CCCCCC2=O)c1Cl [Compound 121] | 1 (Level 1: below 5% growth control rate) | 10 | 10 | 10 | 10 | 6 (Level 6: above 70% growth control rate) | 1 (Level 1: below 5% growth control rate) | 1 (Level 1: below 5% growth control rate) | 4 (Level 4: above 50% growth control rate) | 10 | 10 | 5 (Level 5: above 60% growth control rate) | 3 (Level 3: above 20% growth control rate) | 9 (Level 9: above 95% growth control rate)
3 | Cn1cc(C(=O)Oc2c(C(=O)c3ccc(C(F)(F)F)c(N4CCCCCC4=O)c3Cl)c(C3CC3)nn2C)cn1 [Compound 061] | 0 | 10 | 10 | 10 | 10 | 1 (Level 1: below 5% growth control rate) | 1 (Level 1: below 5% growth control rate) | 0 | 4 (Level 4: above 50% growth control rate) | 5 (Level 5: above 60% growth control rate) | 10 | 10 | 7 (Level 7: above 80% growth control rate) | 1 (Level 1: below 5% growth control rate)
4 | CCOc1c(C(=O)Oc2c(C(=O)c3ccc(C(F)(F)F)c(N4CCCCCC4=O)c3Cl)c(C3CC3)nn2C)cnn1C [Compound 060] | 0 | 10 | 10 | 10 | 10 | 1 (Level 1: below 5% growth control rate) | 0 | 0 | 3 (Level 3: above 20% growth control rate) | 5 (Level 5: above 60% growth control rate) | 10 | 10 | 7 (Level 7: above 80% growth control rate) | 1 (Level 1: below 5% growth control rate)
5 | CCc1nn(C)c(OC(=O)c2cn(C)nc2C)c1C(=O)c1ccc(C(F)(F)F)c(N2CCCCC2=O)c1Cl [Compound 111] | 1 (Level 1: below 5% growth control rate) | 10 | 10 | 10 | 10 | 10 | 1 (Level 1: below 5% growth control rate) | 1 (Level 1: below 5% growth control rate) | 3 (Level 3: above 20% growth control rate) | 10 | 10 | 10 | 4 (Level 4: above 50% growth control rate) | 2 (Level 2: 5%-20% growth control rate)
